The supplement of paper PMC10307832

Legend:
Assay in all cases: relative viability (nuclei count vs DMSO), 5 days (fraction); higher = more cells survive
[1] = compound: COc1ccc(-c2ccc3c(N4CCOC[C@@H]4C)nc(N4CCOC[C@@H]4C)nc3n2)cc1CO [AZD8055]
Summary of the method: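 Only plates meeting two conditions passed: control CV below 25% and at least one doubling. Lung cancer cell lines, kept overnight at 37 °C in 1536-well plates, were pinned with five library-drug doses (not always all listed) √10 apart on vehicle-anchored plates and grown 5 days without medium change. A one-step fix, permeabilisation and Hoechst stain preceded 4× imaging and MetaXpress nuclear counting. Viability equals treated-well nuclei divided by vehicle-well nuclei, as the median over plates.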

[2] = compound: COc1ccc(-c2ccc3c(N4CCOC[C@@H]4C)nc(N4CCOC[C@@H]4C)nc3n2)cc1CO [AZD8055] + Cc1cc(Nc2cc(N3CCN(C)CC3)nc(Sc3ccc(NC(=O)C4CC4)cc3)n2)n[nH]1 [Tozasertib] (partner 0.1 µM)
Summary of the method: (§1)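 One day after seeding in 1536-well plates, lung cancer cell lines were dosed by pin tool. Dosing was either single-drug or a fixed anchor-drug dose plus five library-drug doses (not always all listed) in √10 steps. After 5 days, nuclei were stained in one fix-and-stain step and counted on 4× images, and relative viability is the nuclei count of treated wells over that of vehicle wells, given as the median of duplicate plates.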

[3] = compound: COc1ccc(-c2ccc3c(N4CCOC[C@@H]4C)nc(N4CCOC[C@@H]4C)nc3n2)cc1CO [AZD8055] + COc1cc2c(Oc3ccc(NC(=O)C4(C(=O)Nc5ccc(F)cc5)CC4)cc3F)ccnc2cc1OCCCN1CCOCC1 [Foretinib] (partner 0.25 µM)
Summary of the method: as §1

[4] = compound: COc1ccc(-c2ccc3c(N4CCOC[C@@H]4C)nc(N4CCOC[C@@H]4C)nc3n2)cc1CO [AZD8055] + Nc1nc2[nH]cc(CCc3ccc(C(=O)N[C@@H](CCC(=O)O)C(=O)O)cc3)c2c(=O)[nH]1 [Pemetrexed] (partner 0.2 µM)
Summary of the method: as §1

[5] = compound: COc1ccc(-c2ccc3c(N4CCOC[C@@H]4C)nc(N4CCOC[C@@H]4C)nc3n2)cc1CO [AZD8055] + CC(=O)c1c(C)c2cnc(Nc3ccc(N4CCNCC4)cn3)nc2n(C2CCCC2)c1=O [Palbociclib] (partner 0.5 µM)
Summary of the method: as §1

[6] = compound: COc1ccc(-c2ccc3c(N4CCOC[C@@H]4C)nc(N4CCOC[C@@H]4C)nc3n2)cc1CO [AZD8055] + Cc1nc(Nc2ncc(C(=O)Nc3c(C)cccc3Cl)s2)cc(N2CCN(CCO)CC2)n1 [Dasatinib] (partner 0.075 µM)
Summary of the method: as §1

[7] = compound: COc1ccc(-c2ccc3c(N4CCOC[C@@H]4C)nc(N4CCOC[C@@H]4C)nc3n2)cc1CO [AZD8055] + O=C(c1cc(Cc2n[nH]c(=O)c3ccccc23)ccc1F)N1CCN(C(=O)C2CC2)CC1 [Olaparib] (partner 8 µM)
Summary of the method: as §1

[8] = compound: COc1ccc(-c2ccc3c(N4CCOC[C@@H]4C)nc(N4CCOC[C@@H]4C)nc3n2)cc1CO [AZD8055] + CCNC(=O)c1noc(-c2cc(C(C)C)c(O)cc2O)c1-c1ccc(CN2CCOCC2)cc1 [Luminespib] (partner 0.01 µM)
Summary of the method: as §1

[9] = compound: COc1ccc(-c2ccc3c(N4CCOC[C@@H]4C)nc(N4CCOC[C@@H]4C)nc3n2)cc1CO [AZD8055] + Nc1ncn([C@H]2C[C@H](O)[C@@H](CO)O2)c(=O)n1 [Decitabine] (partner 2 µM)
Summary of the method: as §1

[10] = compound: COc1ccc(-c2ccc3c(N4CCOC[C@@H]4C)nc(N4CCOC[C@@H]4C)nc3n2)cc1CO [AZD8055] + COc1cccc2cc(-c3nc([C@H]4CC[C@H](C(=O)O)CC4)n4ncnc(N)c34)[nH]c12 [OSI-027] (partner 0.5 µM)
Summary of the method: as §1

[11] = compound: COc1ccc(-c2ccc3c(N4CCOC[C@@H]4C)nc(N4CCOC[C@@H]4C)nc3n2)cc1CO [AZD8055] + N=C(N)NC(=N)NCCc1ccccc1 [Phenformin] (partner 250 µM)
Summary of the method: as §1

[12] = compound: COc1ccc(-c2ccc3c(N4CCOC[C@@H]4C)nc(N4CCOC[C@@H]4C)nc3n2)cc1CO [AZD8055] + NC(=O)Nc1cc(-c2cccc(F)c2)sc1C(=O)N[C@H]1CCCNC1 [AZD7762] (partner 0.2 µM)
Summary of the method: as §1

[13] = compound: COc1ccc(-c2ccc3c(N4CCOC[C@@H]4C)nc(N4CCOC[C@@H]4C)nc3n2)cc1CO [AZD8055] + O=C(CCCCCCC(=O)Nc1ccccc1)NO [Vorinostat] (partner 1 µM)
Summary of the method: as §1

[14] = compound: COc1ccc(-c2ccc3c(N4CCOC[C@@H]4C)nc(N4CCOC[C@@H]4C)nc3n2)cc1CO [AZD8055] + CC(=O)Nc1cccc(-n2c(=O)n(C3CC3)c(=O)c3c(Nc4ccc(I)cc4F)n(C)c(=O)c(C)c32)c1 [Trametinib] (partner 0.02 µM)
Summary of the method: as §1

## SW 900
[1]; 0.01 µM
  relative viability: 0.827
[1]; 0.03162 µM
  relative viability: 0.783
[1]; 0.1 µM
  relative viability: 0.704
[1]; 0.3162 µM
  relative viability: 0.513
[1]; 1 µM
  relative viability: 0.236
[2]; first compound 0.01 µM
  relative viability: 0.567
[2]; first compound 0.03162 µM
  relative viability: 0.747
[2]; first compound 0.1 µM
  relative viability: 0.425
[2]; first compound 0.3162 µM
  relative viability: 0.285
[2]; first compound 1 µM
  relative viability: 0.34
[3]; first compound 0.01 µM
  relative viability: 1.03
[3]; first compound 0.03162 µM
  relative viability: 0.86
[3]; first compound 0.1 µM
  relative viability: 0.647
[3]; first compound 0.3162 µM
  relative viability: 0.654
[3]; first compound 1 µM
  relative viability: 0.409
[4]; first compound 0.01 µM
  relative viability: 0.493
[4]; first compound 0.03162 µM
  relative viability: 0.469
[4]; first compound 0.1 µM
  relative viability: 0.512
[4]; first compound 0.3162 µM
  relative viability: 0.353
[4]; first compound 1 µM
  relative viability: 0.241
[5]; first compound 0.01 µM
  relative viability: 0.546
[5]; first compound 0.03162 µM
  relative viability: 0.559
[5]; first compound 0.1 µM
  relative viability: 0.474
[5]; first compound 0.3162 µM
  relative viability: 0.261
[5]; first compound 1 µM
  relative viability: 0.289
[6]; first compound 0.01 µM
  relative viability: 0.622
[6]; first compound 0.03162 µM
  relative viability: 0.691
[6]; first compound 0.1 µM
  relative viability: 0.535
[6]; first compound 0.3162 µM
  relative viability: 0.177
[6]; first compound 1 µM
  relative viability: 0.184
[7]; first compound 0.01 µM
  relative viability: 0.812
[7]; first compound 0.03162 µM
  relative viability: 0.952
[7]; first compound 0.1 µM
  relative viability: 0.719
[7]; first compound 0.3162 µM
  relative viability: 0.48
[7]; first compound 1 µM
  relative viability: 0.502
[8]; first compound 0.01 µM
  relative viability: 0.172
[8]; first compound 0.03162 µM
  relative viability: 0.182
[8]; first compound 0.1 µM
  relative viability: 0.17
[8]; first compound 0.3162 µM
  relative viability: 0.177
[8]; first compound 1 µM
  relative viability: 0.16
[9]; first compound 0.01 µM
  relative viability: 0.459
[9]; first compound 0.03162 µM
  relative viability: 0.519
[9]; first compound 0.1 µM
  relative viability: 0.472
[9]; first compound 0.3162 µM
  relative viability: 0.492
[9]; first compound 1 µM
  relative viability: 0.47
[10]; first compound 0.01 µM
  relative viability: 0.592
[10]; first compound 0.03162 µM
  relative viability: 0.602
[10]; first compound 0.1 µM
  relative viability: 0.536
[10]; first compound 0.3162 µM
  relative viability: 0.311
[10]; first compound 1 µM
  relative viability: 0.196
[11]; first compound 0.01 µM
  relative viability: 0.568
[11]; first compound 0.03162 µM
  relative viability: 0.343
[11]; first compound 0.1 µM
  relative viability: 0.489
[11]; first compound 0.3162 µM
  relative viability: 0.368
[11]; first compound 1 µM
  relative viability: 0.169
[12]; first compound 0.01 µM
  relative viability: 0.538
[12]; first compound 0.03162 µM
  relative viability: 1.01
[12]; first compound 0.1 µM
  relative viability: 0.54
[12]; first compound 0.3162 µM
  relative viability: 0.324
[12]; first compound 1 µM
  relative viability: 0.268
[13]; first compound 0.01 µM
  relative viability: 0.461
[13]; first compound 0.03162 µM
  relative viability: 0.499
[13]; first compound 0.1 µM
  relative viability: 0.538
[13]; first compound 0.3162 µM
  relative viability: 0.325
[13]; first compound 1 µM
  relative viability: 0.265
[14]; first compound 0.01 µM
  relative viability: 0.897
[14]; first compound 0.03162 µM
  relative viability: 0.783
[14]; first compound 0.1 µM
  relative viability: 0.622
[14]; first compound 0.3162 µM
  relative viability: 0.374
[14]; first compound 1 µM
  relative viability: 0.505
